{
  "source": "Sander's compilation of Henry's law constants (doi:10.1584/jpestics.18.3_201)",
  "experiment": "Henry solubility constant Hcp at 298.15 K (mol/(m3 Pa))",
  "settings": "reference: Watanabe (1993)",
  "data": [
    {"smiles": "CCN(CC)C(=O)SCc1ccc(Cl)cc1", "note": "[S-(4-chlorobenzyl) diethylthiocarbamate]", "values": [
      {"measurement": "Henry solubility constant Hcp", "value": 19}
    ]},
    {"smiles": "CCCCOCN(C(=O)CCl)c1c(CC)cccc1CC", "note": "[butachlor]", "values": [
      {"measurement": "Henry solubility constant Hcp", "value": 160}
    ]},
    {"smiles": "CC(C)OC(=O)Nc1cccc(Cl)c1", "note": "[chlorpropham]", "values": [
      {"measurement": "Henry solubility constant Hcp", "value": 23}
    ]},
    {"smiles": "CCOP(=S)(OCC)Oc1cc(C)nc(C(C)C)n1", "note": "[diazinon]", "values": [
      {"measurement": "Henry solubility constant Hcp", "value": 11}
    ]},
    {"smiles": "COP(=S)(OC)Oc1ccc([N+](=O)[O-])c(C)c1", "note": "[fenitrothion]", "values": [
      {"measurement": "Henry solubility constant Hcp", "value": 83}
    ]},
    {"smiles": "CCC(C)c1ccccc1OC(=O)NC", "note": "(stereo not given) [fenobucarb]", "values": [
      {"measurement": "Henry solubility constant Hcp", "value": 150}
    ]},
    {"smiles": "CC(C)OP(=O)(OC(C)C)SCc1ccccc1", "note": "[iprobenphos]", "values": [
      {"measurement": "Henry solubility constant Hcp", "value": 260}
    ]},
    {"smiles": "CCOC(=O)CC(SP(=S)(OC)OC)C(=O)OCC", "note": "(stereo not given) [malathion]", "values": [
      {"measurement": "Henry solubility constant Hcp", "value": 670}
    ]},
    {"smiles": "CCCN(CCC)c1c([N+](=O)[O-])cc(C(F)(F)F)cc1[N+](=O)[O-]", "note": "[trifluralin]", "values": [
      {"measurement": "Henry solubility constant Hcp", "value": 0.91}
    ]},
    {"smiles": "CNC(=O)Oc1ccc(C)c(C)c1", "note": "[xylylcarb]", "values": [
      {"measurement": "Henry solubility constant Hcp", "value": 91}
    ]}
  ]
}
